For experiment [1], the system named is bovine explants (cartilage degradation, liberation of GAG). In words: Cartilage explant assay: pH-induced cartilage degradation, GAG release. In kind it is cell-based. The conditions noted are these: Bos taurus, 72 h, pH 5.5, 3 days. The text has this: EXAMPLE 5: CARTILAGE EXPLANT ASSAY
In order to investigate the effect of potential cathepsin D inhibitors on cartilage degradation, a pH-induced model based on bovine explants is used. The pH of the medium in which the explants are cultivated is matched here to the pathophysiological pH of an arthrotic knee. This pH is pH 5.5. In this ex vivo model, potential cathepsin D inhibitors are subsequently investigated for their action with respect to stopping of the cartilage degradation process. If the cartilage is destroyed, glycosaminoglycans (GAGs) are released into the cell culture supernatant. The amount of GAGs liberated can be determined quantitatively with the aid of DMMB (dimethylmethylene blue hydrochloride). If sulfated GAGs are detected using dimethylmethylene blue hydrochloride, the decrease in the absorption at 633 nm is utilised. […] In order to determine the concentration, a calibration line is also recorded using chondroitin sulfate.
1.) Procedure: pH-Induced Cartilage Degradation of Bovine Explants
The bovine explants are firstly prepared. The induction of the cartilage degradation is carried out in 96-multiwell plates. One explant is cultivated per well. In each case, 200 μl of DMEM (incubation medium pH 5.5) without FBS+30 μg/ml of ascorbic acid are added. Thus negative control, explants (n=4) are incubated at pH 7.4 (without FBS). This control is not included in the calculation of the data, but instead ensures that the pH change has the desired effect on the liberation of GAG. At this point, the substances to be tested are added. No pre-incubation of the explants is carried out. The explants are cultivated with the corresponding substances for 3 days in the incubator at 37° C. and 7.5% CO2.
In order to investigate the effect of cathepsin D inhibitors on the liberation of GAG (glycosaminoglycan), the substances are employed in the desired concentration and cultivated for 3 days. The compounds to be tested are tested in a first experiment in a concentration of 1 μM and 1% of DMSO. Substances which have an effect of >50% on the liberation of GAG (this corresponds to <50% of the control in the Assay Explorer) are tested in the next experiment at 100 nM and 1% of DMSO. Substances which have an effect of >50% on the liberation of GAG under these conditions (this corresponds to <50% of the control in the Assay Explorer) are tested in a concentration/effect relationship. The compounds here are investigated in the following concentrations: 30 μM, 10 μM, 3 μM, 1 μM, 0.3 μM, 0.1 μM, 0.03 μM, 0.01 μM.
The positive control used is pepstatin A with a concentration of 0.01 μM. The assay window is defined by the control (pH 5.5), defined as 0% effect, and the control pH 5.5+0.01 μM pepstatin A, defined as 100% effect. After incubation for 3 days, the cell culture supernatants are collected and stored at −20° C. or measured directly. The amount of liberated GAG is measured photometrically.
The effect (1 value) of the respective substance in % based on the positive control (pH 5.5+0.01 μM pepstatin A) and the negative control (pH 5.5) is reported for concentrations of 1 μM and 100 nM. The value represents the average of 4 replicants. In the determination of a concentration/effect relationship, an IC50 value is reported to the database (Assay Explorer).
The cell culture supernatants (200 μl) are either measured directly or stored at −20° C. […] A rapid colour reaction occurs, which is subsequently measured at 633 nm using a plate reader (for example Envision). […]

In the next experiment the target is T1, recombinant human renin (Homo sapiens, UniProt P00797).
T1 construct: purchased Proteos, Kalamazoo, Mich
T1 sequence (P00797 67-406): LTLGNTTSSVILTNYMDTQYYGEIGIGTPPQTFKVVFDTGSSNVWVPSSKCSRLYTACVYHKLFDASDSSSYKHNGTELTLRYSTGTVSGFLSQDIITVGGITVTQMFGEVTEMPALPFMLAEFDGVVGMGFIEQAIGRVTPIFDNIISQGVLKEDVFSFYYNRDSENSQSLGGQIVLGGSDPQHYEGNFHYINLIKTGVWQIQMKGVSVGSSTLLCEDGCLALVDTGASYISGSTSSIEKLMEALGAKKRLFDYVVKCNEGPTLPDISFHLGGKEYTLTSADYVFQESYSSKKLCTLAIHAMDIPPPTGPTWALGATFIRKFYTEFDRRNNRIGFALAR
In words: In-vitro fluorescence assay for identification of renin-inhibitory activity. Particulars: recombinant human renin 10 nM, FRET substrate 5 μM, pH 7.2; read-out: Renin selectivity IC50. In kind it is biochemical. On the procedure:
EXAMPLE 8: IN-VITRO FLUORESCENCE ASSAY FOR IDENTIFICATION OF RENIN-INHIBITORY ACTIVITY
In order to identify modulators of renin activity, a continuous enzymatic test was carried out with a synthetic peptide which carries a fluorescent group Edans (=(5-(aminoethyl)aminonaphthalenesulfonate) which is quenched by energy transfer from a Dabcyl (4′-dimethylaminoazobenzene-4-carboxylate) group on the same molecule, in Greiner 384-well microtitre plates. Cleavage of the peptidic substrate by renin causes an increase in the fluorescence intensity. In order to determine the efficacy of substances, the time-dependent increase in the fluorescence intensity in the presence of the substance was compared with the time-dependent increase in fluorescence in the absence of substances. The reference substance used was renin inhibitor 2 (Z-Arg-Arg-Pro-Phe-His-Sta-Ile-His N-Boc-Lys methyl ester Z) (Sigma-Aldrich). The substrate used was renin FRET substrate I (DABCYL-g-Abu-Ile-His-Pro-Phe-His-Leu-Val-Ile-His-Thr-EDANS) (Anaspec, Fremont Calif.). The enzyme employed was recombinant human renin (Pro-teos, Kalamazoo, Mich.) in a final concentration of 10 nM. The test was carried out in 50 mM Mops buffer, 1.5% (v/v) of DMSO, 0.1% (w/v) of Igepal®, pH 7.2, 0.5% (w/v) of BSA. 2 μl of each substance solution with serially diluted substance concentration were added to in each case 4 μl of renin solution and incubated at room temperature for 15 min. The reaction was started by addition of 4 μl of substrate solution (final concentration 5 μM). After carrying out a starting-point fluorescence measurement (excitation wavelength 340 nm/emission wavelength 495 nm) using an Envision multilabel reader (Perkin Elmer), the reaction was incubated at 37° C. for 60 min. The amount of peptide fragment cleaved off during the reaction time was subsequently measured by determination of the increase in the fluorescence intensity at 495 nm (excitation wavelength 340 nm).
Result: all compounds measured have an IC50 of the renin selectivity of >30 μM (see Table 2 in Example 1).

Consider `CC[C@H](C)[C@H](NC(=O)C[C@H](O)[C@H](Cc1ccccc1)NC(=O)[C@@H](NC(=O)CCCc1ccccc1)C(C)C)C(=O)N[C@H](C(=O)O)C(C)C` [Compound 5, (S)-2-((2S,3S)-2-{(3S,4S)-3-hydroxy-4-[(S)-3-methyl-2-(4-phenyl-butyrylamino)butyrylamino]-5-phenylpentanoylamino}-3-methylpentanoylamino)-3-methylbutyric acid], for which the IC50 in experiment [1] was 0.989 µM; on recombinant human renin it was 20 µM.

For `CC[C@H](C)[C@H](NC(=O)C[C@H](O)[C@H](Cc1ccccc1)NC(=O)[C@@H](NC(=O)Cc1cccc(OC)c1)C(C)C)C(=O)N[C@H](C(=O)O)C(C)C` [Compound 20, (S)-2-[(2S,3S)-2-((3S,4S)-3-hydroxy-4-{(S)-2-[2-(3-methoxyphenyl)-acetylamino]-3-methylbutyrylamino}-5-phenylpentanoylamino)-3-methylpentanoylamino]-3-methylbutyric acid], the IC50 in experiment [1] amounted to 0.0479 µM.

As to `CC[C@H](C)[C@H](NC(=O)C[C@H](O)[C@H](Cc1ccccc1)NC(=O)[C@@H](NC(=O)CCc1ccccc1)C(C)C)C(=O)N[C@H](C(=O)O)C(C)C` [Compound 4, (S)-2-((2S,3S)-2-{(3S,4S)-3-hydroxy-4-[(S)-3-methyl-2-(3-phenyl-propionylamino)butyrylamino]-5-phenylpentanoylamino}-3-methylpentanoylamino)-3-methylbutyric acid], the IC50 in experiment [1] turned out to be 0.0606 µM.

Usually IC50 stands for the point on the concentration scale where inhibition reaches its midpoint.

Values taken from US10077288B2, “Hydroxystatin derivatives for the treatment of arthrosis” (Merck Patent GmbH, priority 2012, dated 2018).
